Reference: patent US12037372B2, “Bioactive peptides derived from snakes” (Universiteit Leiden, priority 2018, dated 2024)
Entries after “also recorded” stand apart in the source; their conditions may differ.

Columns and labels:
S. aureus LUH 14616 = assay: Resistance development assay; assay type: cell-based, Staphylococcus aureus; settings: 20 passages
Procedure: (§1) A bacterial culture was prepared and washed as described before. The bacterial culture was diluted to a concentration of 5×10^6 CFU/ml in modified RPMI 1640 comprising 20 mM HEPES, L-glutamine and without sodium bicarbonate (RPMImod; Sigma-Aldrich). In a polypropylene 96-well plate, a two-fold peptide dilution series was made in RPMImod with concentrations ranging from 0.94 μM to 240 μM. […] A negative control of RPMImod without peptide or an antibiotic was included for both dilution series. A contamination control was included containing only RPMImod. To all the wells, except the contamination control wells, 5 μl of the bacterial suspension were added. The plate was sealed and incubated overnight at 37° C. and 200 rpm. After incubation the MIC was determined as the well with the lowest peptide concentration and no bacterial growth. The well with half the MIC was diluted 2.5-fold with RPMImod and transferred to an Eppendorf tube. […] The results were expressed as the fold increase of the MIC compared to the MIC at the first passage.

E. coli = assay: Resistance development assay; assay type: cell-based, Escherichia coli; settings: 20 passages
Procedure: as §1

[1] = test system: multidrug resistant strain Acinetobacter baumannii RUH875; assay: Bactericidal activity of peptides (in vitro killing assay); assay type: cell-based; settings: for LC99.9, bactericidal activity: MDR A. baumannii, PBS with 50% plasma
Procedure: (§2) Enterococcus faecium (LUH 15122), Staphylococcus aureus (LUH 14616), Klebsiella pneumoniae (LUH 15104), Acinetobacter baumannii (RUH 875), Pseudomonas aeruginosa (LUH 15103), Enterobacter cloacae (LUH 15114) and Escherichia coli (LUH 15117) were used. Prior to experimentation the bacteria were taken from a glycerol stock stored at −80° C. and cultured overnight on sheep blood agar plates at 37° C. On the day of experimentation the bacteria were cultured in tryptic soy broth (TSB; Oxoid) for 2.5 hours at 37° C. and 200 rpm to a mid-logarithmic phase. The bacterial suspension was washed in phosphate buffered saline (PBS; pH 7.4), centrifuged for 10 minutes at 3000 rpm, and resuspended in PBS to the desired concentration, as determined by measuring the absorbance at 600 nm.
(§3) As a control the bacteria were also incubated in PBS with either 50% plasma or 50% urine without peptide. The plate was incubated for 2 hours at 37° C. and 200 rpm. After incubation the number of viable bacteria was determined microbiologically by plating the samples and a 10-times dilution series in PBS on diagnostic sensitivity test agar plates (DST; Sigma). The DST plates were incubated overnight at 37° C. Results were expressed as lethal concentration 99.9, or LC99.9, which represents the lowest concentration of peptide that killed 99.9% of the bacteria within 2 hours of incubation.

[2] = test system: MDR E. cloacae (LUH 15114); assay: as above; assay type: cell-based, Enterobacter cloacae; settings: PBS with 50% plasma, 2 hours
Procedure: as §2, §3

E. faecium (LUH 15122) = assay: as above; assay type: cell-based, Enterococcus faecium; settings: PBS with 50% plasma, 2 hours
Procedure: as §2, §3

[3] = test system: persisters originating from matured, antibiotic-exposed, MRSA biofilms; assay: Activity against persisters; assay type: cell-based, Staphylococcus aureus
[4] = test system: MDR S. aureus (LUH 14616), MRSA; assay: Bactericidal activity of peptides (in vitro killing assay); assay type: cell-based, Staphylococcus aureus; settings: 50% v/v human plasma
Procedure: as §2, §3

[5] = test system: MRSA (S. aureus LUH 14616) on ex vivo human skin; assay: Ex vivo skin model; set-up: species or system Staphylococcus aureus; settings: 10 μl peptide solution; 1 hour treatment
From the text: The donor skin was transported to the LUMC in RPMI 1640 medium (Gibco) supplemented with penicillin/streptomycin (Gibco). Skin samples were washed in PBS and left overnight in RPMI 1640 medium without antibiotics. On the day of the experiment the skin was again washed in PBS, then spread out and punches with a diameter of 8 mm diameter were made with a biopsy punch (Stiefel). The skin samples were dried with a cotton swab. A liquid dam was made with LC Block-Out Resin (Ultradent) on the edge of the skin samples to prevent liquids from dripping off. The liquid dam was solidified by 4 seconds exposure of UV light (Super 1200 led; ECO). The skin samples were placed on grids in a 12-well plate (Costar) filled underneath with medium comprising Ham F12, DMEM and FCS (Gibco). An S. aureus LUH 14616 bacterial suspension was cultured and washed as described before. The skin punches were inoculated with 5 μl of the bacterial suspension (1×10^8 CFU/ml) for one hour at 37° C. and 5% CO2. […] The infected skin was treated for 1 hour at 37° C. and 5% CO2 with 10 μl of the peptide solutions, including a control with 10 μl of PBS alone. Polypropylene tubes were filed with glass beads (1.7 mm diameter) and 1 ml of PBS. The liquid dam was removed from the skin after treatment. […] Results were expressed as the number of viable bacteria (CFU/ml) after treatment.

[6] = test system: lipopolysaccharide from E. coli J5 (LPS); assay: LPS neutralization by peptides (whole blood, IL-12p40 ELISA); assay type: cell-based, human; settings: compared to the LPS control
Procedure: Heparinized blood collected from healthy human volunteers was diluted five times in RPMI 1640. Next, 195 μl of diluted blood were pipetted in to the wells of a 96-well cell culture plate. In another 96-well polypropylene V-bottom plate, 15 μl of peptide solution with final concentrations of 1 nM to 1000 nM were mixed with 15 μl of 500 ng/ml lipopolysaccharide from E. coli J5 (LPS; Sigma) for 30 minutes at 37° C. and 200 rpm. After incubation the mixtures were diluted five times with 120 μl of RPMI. From the diluted mixtures 5 μl were transferred to the wells of the plate containing the 195 μl of blood. The plate was incubated for 20 hours at 37° C. and 5% CO2. The plate was centrifuged for 5 minutes at 1200 rpm. The supernatants were stored as aliquots at −20° C. until analysis of the cytokine level by ELISA. The IL-12p40 sandwich ELISA from Invitrogen was used. ELISAs were performed according to manufacturer's instructions. Results were expressed as the concentration IL-12p40 in pg/ml.

[7] = test system: colistin-resistant E. coli (LUH 15117); assay: Bactericidal activity of peptides (in vitro killing assay); assay type: cell-based, Escherichia coli; settings: PBS with 50% plasma, 2 hours
Procedure: as §2, §3

[8] = test system: MDR K. pneumoniae (LUH 15104); assay: as above; assay type: cell-based, Klebsiella pneumoniae; settings: PBS with 50% plasma, 2 hours
Procedure: as §2, §3

A. Baumannii [9] = assay: Resistance development assay; assay type: cell-based, Acinetobacter baumannii; settings: 20 passages
Procedure: as §1

A. Baumannii [10] = assay: Killing of A. baumannii in BM2 medium (control); assay type: cell-based, Acinetobacter baumannii; settings: 0.8 μM peptide
Procedure: As a control, the ability of these peptides to kill A. baumannii in BM2 medium was assessed.

[11] = test system: 24-hour biofilm of A. baumannii RUH 875; assay: Biofilm breakdown assay; assay type: cell-based, Acinetobacter baumannii; settings: 2-hour treatment
Procedure: To a polypropylene 96-well flat-bottom plate (Greiner) 50 μl of a bacterial suspension at a concentration of 1×10^7 CFU/ml in BM2 medium (Overhage et al., 2008) were added. A control comprising BM2 medium alone was included. The plate was sealed off with a seal (Costar) and incubated in a humidified environment for 24 hours at 37° C. Thereafter the wells were washed 2 times with PBS. […] The plate was sealed off and incubated for 2 hours at 37° C. and 200 rpm. For analysis the plate was sonicated (Ultrasoonbad BRANSONIC® m1800H-E; Boom b.v.) for 5 minutes to detach the biofilm bacteria. The number of viable bacteria in the sonicates was determined microbiologically by plating the samples and a 10-times dilution series on DST agar plates and incubating these overnight at 37° C. Results were expressed as the LC99.9.

MRSA = settings: Cai et al., 2018; cited from earlier work
P. aeruginosa = settings: Cai et al., 2018; cited from earlier work
[12] = test system: drug-sensitive strain Escherichia coli LUH15108; assay: Bactericidal activity of peptides (in vitro killing assay), alanine scan; assay type: cell-based; settings: lowest concentration killing 99.9% of an inoculum of about one million bacteria, 50% (v/v) human plasma, within 2 hours
Procedure: The amino acids of the SP27 peptide were substituted at various positions with Alanine. The substituted peptides were tested on A. baumannii and E. coli bacterial strains for having antimicrobial activity. Furthermore, the substituted peptides were tested for their hemolytic activity as an indicator for their toxicity.

[13] = test system: melanoma cells and other cancer cells; settings: Wang et al.; cited from earlier work
melanoma = settings: Wang et al.; cited from earlier work
[14] = test system: MDR P. aeruginosa (LUH 15103); assay: Bactericidal activity of peptides (in vitro killing assay); assay type: cell-based, Pseudomonas aeruginosa; settings: 2-hour treatment, 50% v/v human plasma, median (range)
Procedure: as §2, §3

## KRFKKFFKKLKNNVKKRVKKFFRKPRVIGVTIPF [SP4]
S. aureus LUH 14616
  resistance development: fold increase of the MIC: remained constant for all 20 passages; also recorded: limited resistance
E. coli
  resistance development: fold increase of the MIC: remained constant for all 20 passages
[1]; 2 hours
  LC99.9, bactericidal activity: submicromolar concentrations
[2]
  LC99.9, bactericidal activity: submicromolar concentrations
E. faecium (LUH 15122)
  LC99.9, bactericidal activity: low micromolar concentrations
[3]
  activity against persisters: highly effective
[4]; Table 2, MDR S. aureus, concentration inducing 3 log reduction of viable bacteria
  LC99.9: 3.2 µM
[5]
  peptide concentration killing 99.9% of the MRSA on ex vivo human skin: 102.4 µM
[6]; 100 nM peptide
  LPS neutralization (IL-12p40 production): 74%
[6]; 1000 nM peptide
  LPS neutralization (IL-12p40 production): 96%
[7]
  LC99.9, bactericidal activity: submicromolar concentrations
[8]
  LC99.9, bactericidal activity: submicromolar concentrations
A. Baumannii [9]
  resistance development: fold increase of the MIC: remained constant for all 20 passages
A. Baumannii [10]
  reduction of viable bacteria: 2 log
[11]
  peptide concentration with complete elimination of the biofilms: 51.2 µM

## KRFQNFFRELEKKFREFFRVYRITIGATIRF [SP16]
MRSA
  bactericidal effect against MRSA: no bactericidal effect
P. aeruginosa
  bactericidal effect against P. aeruginosa: no bactericidal effect

## KRFKKFFRKVKKGVHRYFKKNKFYIAATIPYYG [SP27]
S. aureus LUH 14616
  resistance development: fold increase of the MIC: remained constant for all 20 passages; also recorded: limited resistance
E. coli
  resistance development: fold increase of the MIC: remained constant for all 20 passages
[1]; 2 hours
  LC99.9, bactericidal activity: submicromolar concentrations
[1]; Table 5, 50% (v/v) human plasma, 2 hours
  LC99.9 (μM) A. baumannii: 0.8 µM
[1]; Table 6, 50% (v/v) human plasma, 2 hours
  LC99.9 (μM) A. baumannii: 0.8 µM
[1]; lowest concentration killing 99.9% of an inoculum of about one million bacteria in 50% (v/v) human plasma within 2 hours, A. baumannii RUH875
  LC99.9 (μM) A. baumannii: 0.8 µM
[1]; lowest concentration killing 99.9% of an inoculum of about one million bacteria, 50% (v/v) human plasma, within 2 hours, A. baumannii RUH875
  LC99.9 (μM) A. baumannii: 0.8 µM
[1]; lowest concentration of the peptide that kills 99.9% of an inoculum of about one million bacteria in the presence of 50% (v/v) human plasma within 2 hours, Acinetobacter baumannii RUH875
  LC99.9 (μM) A. baumannii: 0.8 µM
[2]
  LC99.9, bactericidal activity: submicromolar concentrations
E. faecium (LUH 15122)
  LC99.9, bactericidal activity: low micromolar concentrations
[5]
  peptide concentration killing 99.9% of the MRSA on ex vivo human skin: 204.8 µM
[7]
  LC99.9, bactericidal activity: submicromolar concentrations
[8]
  LC99.9, bactericidal activity: submicromolar concentrations
A. Baumannii [9]
  resistance development: fold increase of the MIC: remained constant for all 20 passages
A. Baumannii [10]
  reduction of viable bacteria: 2 log
[12]
  LC99.9 (μM) E. coli: 1.6 µM
[11]
  peptide concentration with complete elimination of the biofilms: 51.2 µM

## KRFKKFFRKLKKSVKKRAKEFFKKPRVIGVSIPF [SP5]
[13]
  effect on melanoma cells and other cancer cells in vitro: inhibits
melanoma
  tumor load in melanoma-bearing mice: reduces the tumor load
[14]
  LC99.9 (μM) MDR P. aeruginosa in 50% plasma: 0.4 µM
[4]; MDR S. aureus LUH 14616, 2-hour treatment, lowest concentration killing ≥99.9%, median (range)
  LC99.9 (μM) MRSA in 50% plasma: 25.6 µM
